Here are results for 20 molecules from patent publication US9771369B2, “Compounds and methods for kinase modulation, and indications therefor” (Plexxikon Inc., priority 2014, dated 2017).

The test system of assay [1] is BaF3-FL KIT D816V or BaF3-FL KIT V560G/D816V cell line. As to the kind of experiment: Cell-based assays of c-Kit mutant kinase activity (cell proliferation, ATPlite). To be noted: at least one of the c-kit cell assays of Example 7. In short, it runs like this: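 BaF3 cells dependent on transfected full-length human KIT D816V or V560G/D816V (pCI-Neo, CMV promoter) were seeded at 1×10^4 cells/well and exposed to 8-point 1:3 dilutions from 10 μM top (0.2% DMSO) for three days at 37° C. ATPlite luminescence gave cell number; IC50 from concentration-response.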
(ATP-based viability assays read luminescence as a measure of living cells.)

The next assay concerns the target c-kit mutant D816V (Homo sapiens (Human), UniProt P10721, D816V/DEL694-753). As to the kind of experiment: c-Kit mutant D816V biochemical assay (AlphaScreen kinase activity). In short, it runs like this: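 AlphaScreen with streptavidin donor and PY30 acceptor beads read phosphotyrosine on biotin-(E4Y)10 substrate (30 nM). Enzyme: E. coli-expressed N-His c-Kit D816V, residues 551-934 lacking kinase insert 694-753. Reaction 30 min at room temperature, 10 μM ATP, 5% DMSO; IC50 fitted over 8 three-fold dilutions.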
(Alpha assays give light when donor and acceptor beads are brought close together.)

For orientation: IC50 means the point on the concentration scale where inhibition reaches its midpoint. High values mean weaker potency in that assay, low ones greater potency in that assay.

Each structure is given as a SMILES string. A value given as a limit tells only on which side of the number the result lay.

Chain of c-kit mutant D816V (P10721 other isoform, or with tags, fused parts or gaps D816V/del 694-753): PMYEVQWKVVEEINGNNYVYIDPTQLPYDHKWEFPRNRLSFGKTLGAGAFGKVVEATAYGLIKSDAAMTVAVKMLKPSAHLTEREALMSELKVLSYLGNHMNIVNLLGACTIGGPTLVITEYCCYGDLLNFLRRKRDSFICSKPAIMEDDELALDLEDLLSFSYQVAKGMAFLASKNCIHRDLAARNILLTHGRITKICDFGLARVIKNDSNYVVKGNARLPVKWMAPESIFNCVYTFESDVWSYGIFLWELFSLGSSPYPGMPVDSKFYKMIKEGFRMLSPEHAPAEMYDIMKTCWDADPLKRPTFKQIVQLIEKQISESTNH

Consider `Cc1nc(C2CCN(c3ncnc4[nH]c(-c5ccc(F)cc5)cc34)CC2)[nH]c1-c1ccccc1` [P-3002, 6-(4-fluorophenyl)-4-[4-(4-methyl-5-phenyl-1H-imidazol-2-yl)-1-piperidyl]-7H-pyrrolo[2,3-d]pyrimidine], for which the IC50 in assay [1] was < 10000 nM; at c-kit mutant D816V, 0.0001 to 1 µM.
On the same counts, the results for `COc1cc(-c2cc3c(N4CCC(c5nc(C)c(-c6ccccc6)[nH]5)CC4)ncnc3[nH]2)ccn1` [P-3003, 6-(2-methoxy-4-pyridyl)-4-[4-(4-methyl-5-phenyl-1H-imidazol-2-yl)-1-piperidyl]-7H-pyrrolo[2,3-d]pyrimidine] are < 10000 nM and 0.0001 to 1 µM.
For `Cc1cc2c(N3CCC(c4nc(C)c(-c5ccccc5)[nH]4)CC3)ncnc2[nH]1` [P-3004, 6-methyl-4-[4-(4-methyl-5-phenyl-1H-imidazol-2-yl)-1-piperidyl]-7H-pyrrolo[2,3-d]pyrimidine], in that order: < 10000 nM and 1 to 10 µM.
On the same counts, the results for `Cc1cc2c(N3CCC(c4nc(C)c(-c5ccc(F)cc5)[nH]4)CC3)ncnc2[nH]1` [P-3005, 4-[4-[5-(4-fluorophenyl)-4-methyl-1H-imidazol-2-yl]-1-piperidyl]-6-methyl-7H-pyrrolo[2,3-d]pyrimidine] are < 10000 nM and 1 to 10 µM.
Turning to `COc1cc(-c2cc3c(N4CCC(c5nc(C)c(-c6cccc(F)c6)[nH]5)CC4)ncnc3[nH]2)ccn1` [P-3019, 4-[4-[5-(3-fluorophenyl)-4-methyl-1H-imidazol-2-yl]-1-piperidyl]-6-(2-methoxy-4-pyridyl)-7H-pyrrolo[2,3-d]pyrimidine], the IC50 in assay [1] is < 10000 nM; against c-kit mutant D816V it was 0.0001 to 1 µM.
On the same counts, the results for `Cc1nc(C2CCN(c3ncnc4[nH]c(-c5ccc(C#N)cc5)cc34)CC2)[nH]c1-c1ccc(F)cc1` [P-3020, 4-[4-[4-[5-(4-fluorophenyl)-4-methyl-1H-imidazol-2-yl]-1-piperidyl]-7H-pyrrolo[2,3-d]pyrimidin-6-yl]benzonitrile] are < 10000 nM and 0.0001 to 1 µM.
In the case of `COc1cccc(-c2[nH]c(C3CCN(c4ncnc5[nH]c(-c6ccc(C#N)cc6)cc45)CC3)nc2C)c1` [P-3021, 4-[4-[4-[5-(3-methoxyphenyl)-4-methyl-1H-imidazol-2-yl]-1-piperidyl]-7H-pyrrolo[2,3-d]pyrimidin-6-yl]benzonitrile], the IC50 was < 10000 nM in assay [1] and 0.0001 to 1 µM at c-kit mutant D816V.
For `COc1cccc(-c2[nH]c(C3CCN(c4ncnc5[nH]c(-c6ccnc(OC)c6)cc45)CC3)nc2C)c1` [P-3022, 4-[4-[5-(3-methoxyphenyl)-4-methyl-1H-imidazol-2-yl]-1-piperidyl]-6-(2-methoxy-4-pyridyl)-7H-pyrrolo[2,3-d]pyrimidine], in that order: < 10000 nM and 0.0001 to 1 µM.
For `COc1cc(-c2cc3c(N4CCC(c5nc(C)c(-c6ccc(OC)c(C)c6)[nH]5)CC4)ncnc3[nH]2)ccn1` [P-3023, 4-[4-[5-(4-methoxy-3-methyl-phenyl)-4-methyl-1H-imidazol-2-yl]-1-piperidyl]-6-(2-methoxy-4-pyridyl)-7H-pyrrolo[2,3-d]pyrimidine], the results for the concentration for half-maximal inhibition (IC50) (in assay [1]; against c-kit mutant D816V) were < 10000 nM and 0.0001 to 1 µM, respectively.
For `CCOc1cccc(-c2[nH]c(C3CCN(c4ncnc5[nH]c(-c6ccc(F)cc6)cc45)CC3)nc2C)c1` [P-3024, 4-[4-[5-(3-ethoxyphenyl)-4-methyl-1H-imidazol-2-yl]-1-piperidyl]-6-(4-fluorophenyl)-7H-pyrrolo[2,3-d]pyrimidine], the 50% inhibitory concentration (IC50) was < 10000 nM in assay [1] and 0.0001 to 1 µM at c-kit mutant D816V.
`CCOc1cccc(-c2[nH]c(C3CCN(c4ncnc5[nH]c(-c6ccc(C#N)cc6)cc45)CC3)nc2C)c1` [P-3025, 4-[4-[4-[5-(3-ethoxyphenyl)-4-methyl-1H-imidazol-2-yl]-1-piperidyl]-7H-pyrrolo[2,3-d]pyrimidin-6-yl]benzonitrile]: the IC50 in assay [1] is < 10000 nM; on c-kit mutant D816V it was 0.0001 to 1 µM.
On the same counts, the results for `CCOc1ccc(-c2[nH]c(C3CCN(c4ncnc5[nH]c(-c6ccc(F)cc6)cc45)CC3)nc2C)cc1` [P-3026, 4-[4-[5-(4-ethoxyphenyl)-4-methyl-1H-imidazol-2-yl]-1-piperidyl]-6-(4-fluorophenyl)-7H-pyrrolo[2,3-d]pyrimidine] are < 10000 nM and 0.0001 to 1 µM.
On the same counts, the results for `CCOc1ccc(-c2[nH]c(C3CCN(c4ncnc5[nH]c(-c6ccc(C#N)cc6)cc45)CC3)nc2C)cc1` [P-3027, 4-[4-[4-[5-(4-ethoxyphenyl)-4-methyl-1H-imidazol-2-yl]-1-piperidyl]-7H-pyrrolo[2,3-d]pyrimidin-6-yl]benzonitrile] are < 10000 nM and 0.0001 to 1 µM.
For `COc1ccc(-c2[nH]c(C3CCN(c4ncnc5[nH]c(-c6ccc(F)cc6)cc45)CC3)nc2C)cc1` [P-3028, 6-(4-fluorophenyl)-4-[4-[5-(4-methoxyphenyl)-4-methyl-1H-imidazol-2-yl]-1-piperidyl]-7H-pyrrolo[2,3-d]pyrimidine], in that order: < 10000 nM and 0.0001 to 1 µM.
Regarding `COc1ccc(-c2[nH]c(C3CCN(c4ncnc5[nH]c(-c6ccc(F)cc6)cc45)CC3)nc2C)cc1C` [P-3029, 6-(4-fluorophenyl)-4-[4-[5-(4-methoxy-3-methyl-phenyl)-4-methyl-1H-imidazol-2-yl]-1-piperidyl]-7H-pyrrolo[2,3-d]pyrimidine], the IC50 is < 10000 nM in assay [1] and 0.0001 to 1 µM against c-kit mutant D816V.
`COc1ccc(-c2[nH]c(C3CCN(c4ncnc5[nH]c(-c6ccc(C#N)cc6)cc45)CC3)nc2C)cc1C` [P-3030, 4-[4-[4-[5-(4-methoxy-3-methyl-phenyl)-4-methyl-1H-imidazol-2-yl]-1-piperidyl]-7H-pyrrolo[2,3-d]pyrimidin-6-yl]benzonitrile]: the IC50 is < 10000 nM in assay [1] and 0.0001 to 1 µM at c-kit mutant D816V.
For `CCOc1ccc(-c2[nH]c(C3CCN(c4ncnc5[nH]c(-c6ccnc(OC)c6)cc45)CC3)nc2C)cc1` [P-3031, 4-[4-[5-(4-ethoxyphenyl)-4-methyl-1H-imidazol-2-yl]-1-piperidyl]-6-(2-methoxy-4-pyridyl)-7H-pyrrolo[2,3-d]pyrimidine], in that order: < 10000 nM and 0.0001 to 1 µM.
Consider `Cc1nc(C2(C)CCN(c3ncnc4[nH]c(-c5ccc(F)cc5)cc34)CC2)[nH]c1-c1ccccc1` [P-3032, 6-(4-fluorophenyl)-4-[4-methyl-4-(4-methyl-5-phenyl-1H-imidazol-2-yl)-1-piperidyl]-7H-pyrrolo[2,3-d]pyrimidine], for which the values for the IC50 (in assay [1]; on c-kit mutant D816V) were < 10000 nM and 0.0001 to 1 µM, respectively.
In the case of `COc1cc(-c2cc3c(N4CCC(C)(c5nc(C)c(-c6ccccc6)[nH]5)CC4)ncnc3[nH]2)ccn1` [P-3033, 6-(2-methoxy-4-pyridyl)-4-[4-methyl-4-(4-methyl-5-phenyl-1H-imidazol-2-yl)-1-piperidyl]-7H-pyrrolo[2,3-d]pyrimidine], the IC50 is < 10000 nM in assay [1] and 0.0001 to 1 µM against c-kit mutant D816V.
On the same counts, the results for `CCOc1cccc(-c2[nH]c(C3CCN(c4ncnc5[nH]c(-c6ccnc(OC)c6)cc45)CC3)nc2C)c1` [P-3034, 4-[4-[5-(3-ethoxyphenyl)-4-methyl-1H-imidazol-2-yl]-1-piperidyl]-6-(2-methoxy-4-pyridyl)-7H-pyrrolo[2,3-d]pyrimidine] are < 10000 nM and 0.0001 to 1 µM.
